{
  "source": "patent US6884600B1",
  "about": "“Protein phosphatase-1 catalytic subunit interactions” (Medical Research Council London, priority 1996, dated 2005)",
  "key": {"PP1 and PP2A": {"test_system": "PP1 and PP2A", "settings": "refs [17], [19]; cited from earlier work"}, "PP1GL": {"test_system": "PP1GL", "assay": "Phosphorylase phosphatase activity of PP1GL (hepatic glycogen particles)", "type": "biochemical, rat", "experimental": "Hepatic glycogen particles were diluted in assay buffer to 0.6 phosphorylase phosphatase (PhP) mU per ml, incubated for 15 minutes at 30° C. with GM-(G63-T93) (closed circles), GM-(G63-K80) (open circles) or GM-(G63-N75) (closed triangles) and assayed as described in Example 1. The open triangles show the effect of GM-(G63-N75) which had been phosphorylated at Ser67 by PKA (pGM-(G63-N75)). Similar results were obtained in four experiments.\n(A) Hepatic glycogen protein particles containing PP1-GL were diluted and incubated for 15 min at 30° C. with the indicated concentrations of either M110[M1-F38] (open circles) or M110[M1-K35] (closed circles) and the phosphatase reactions were initiated by addition of ^32P-labelled glycogen phosphorylase. The results are expressed as a percentage of the activity determined in control incubations where the M110 peptides were omitted. Similar results were obtained in three separate experiments. (B) The experiment was carried out as in (A), except that the peptide GM[G63-N75] (“wild type”, WT) and variants in which either Val 66 (V66A) (closed triangles) or Phe 68 (F68A) (closed circles) were changed to Ala, were used instead of the M110 peptides. Similar results were obtained in three separate experiments.\n(§1) The myosin-associated form of PP1 (PP1M) was from chicken gizzard and the glycogen-associated form of PP1 (PP1G) from rabbit skeletal muscle. The β isoform of PP1c was released from PP1G by incubation for 2 hours in 2M LiBr, then purified by gel-filtration on a 30×1 cm column of Superose 12 (Pharmacia, Milton Keynes, U.K.) in the presence of 0.5M LiBr. Glycogen protein particles from rat liver were used as the source of hepatic PP1G Digoxygenin-labelled PP1c (γ1-isoform, hereafter termed PP1) was prepared as in [9]. GL was expressed in E. coli as a glutathione-S-transferase (GST) fusion protein [7], termed GST-GL. The catalytic subunit of PP2A from bovine heart (PP2AC) was provided by Dr R. MacKintosh in this Unit. The phosphorylatable myosin light chain (MLC20) and heavy meromyosin from chicken gizzard were a gift from Dr M. Ikebe (Case Western Reserve University, Cleveland, USA). Thrombin and benzamidine-Agarose were purchased from Sigma (Poole, UK).\n(§2) ^32P-labelled rabbit skeletal muscle phosphorylase a (containing 1.0 mol phosphate per mol subunit) was prepared by phosphorylation with phosphorylase kinase, ^32P-labelled rabbit skeletal muscle glycogen synthase (containing 1.5 mol/mol subunit in the sites 3 region) was prepared by phosphorylation with glycogen synthase kinase-3 [24]). ^32P-labelled chicken gizzard MLC20 and ^32P-labelled chicken gizzard heavy meromyosin (containing 1.0 mol phosphate per mol subunit) were prepared by phosphorylation with smooth muscle myosin light chain kinase. The dephosphorylation of phosphorylase a (10 μM), glycogen synthase (1 μM) and MLC20 (1 μM) and heavy meromyosin (1 μM) was carried out as in [24]. One unit of activity (U) was that amount which released […] of phosphate in one minute.\n(§3) PP1c was isolated from the rabbit skeletal muscle PP1-GM complex as described previously (Johnson et al, 1996). Glycogen particles isolated from rat liver (Schelling el al, 1988) served as the source of PP1-GL. The dephosphorylation of glycogen phosphorylase (10 μM) and the isolated MLC20 of smooth muscle myosin (1 μM) by PP1c was carried out as described previously (Cohen et al., 1988; Alessi et al., 1992)."}, "PP1c [1]": {"molecular_target": "T1, PP1c (Oryctolagus cuniculus, UniProt P62143)", "T1 construct": "from tissue; host or cells: rabbit skeletal muscle (PP1G dissociated with LiBr)", "T1 sequence (P62143 whole entry)": "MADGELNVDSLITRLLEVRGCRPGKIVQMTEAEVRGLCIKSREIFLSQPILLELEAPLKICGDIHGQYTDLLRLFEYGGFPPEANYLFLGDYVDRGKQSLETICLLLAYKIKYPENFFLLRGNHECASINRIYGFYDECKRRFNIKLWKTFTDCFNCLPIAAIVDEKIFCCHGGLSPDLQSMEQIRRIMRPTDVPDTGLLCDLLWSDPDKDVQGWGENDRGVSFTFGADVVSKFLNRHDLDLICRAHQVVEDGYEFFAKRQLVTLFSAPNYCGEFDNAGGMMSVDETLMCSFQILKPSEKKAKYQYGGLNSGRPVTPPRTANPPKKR", "assay": "Phosphorylase phosphatase activity of PP1c", "type": "biochemical, rabbit", "experimental": "(§4) A,B; Effects of M110-(M1-E309) (closed circles), M110-(M1-F38) (open circles) and M110-(D39-E309) (open triangles) on the MLC20 phosphatase […] and phosphorylase phosphatase (B) activities of PP1c were measured after incubating PP1c for 15 minutes at 30° C. with each fragment. The results are presented as a percentage of those obtained in experiments where the M110 fragments were omitted.\n(§5) C,D; The effect of M110-(M1-A150) (open circles) and M110-(L24-Y496) (closed circles) on the MLC20 phosphatase (C) and phosphorylase phosphatase (D) activities of PP1c were measured as in A,B.\n(B) The phosphorylase phosphatase activity of PP1c was assayed as in A in the presence or absence of 1 μM GM-(G63-T93) and 1.0 nM M110-(M1-E309). The results are presented (SEM for three experiments) as a percentage of the PP1c activity measured in the absence of GM-(63-T93), M110-(M1-F38) or M110-(M1-E309).\nas §1, §2, §3"}, "PP1c (γ1-isoform)": {"molecular_target": "PP1c (γ1-isoform) (Homo sapiens, UniProt P36873)", "sequence (P36873 whole entry, the tested form may be a part, canonical isoform)": "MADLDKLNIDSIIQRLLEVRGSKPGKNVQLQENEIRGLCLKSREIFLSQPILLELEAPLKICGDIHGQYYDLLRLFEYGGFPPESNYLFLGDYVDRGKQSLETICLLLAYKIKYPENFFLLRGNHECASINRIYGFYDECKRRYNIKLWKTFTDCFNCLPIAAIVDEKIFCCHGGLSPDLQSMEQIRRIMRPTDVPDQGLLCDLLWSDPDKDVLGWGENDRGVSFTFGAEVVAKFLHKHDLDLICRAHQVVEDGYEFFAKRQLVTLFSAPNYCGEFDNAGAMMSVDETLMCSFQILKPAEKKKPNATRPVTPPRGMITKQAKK", "assay": "Far Western: GST-GM fusion proteins probed with digoxygenin-labelled PP1γ", "type": "binding", "settings": "GST-fusion proteins on blot probed with digoxygenin-labelled PP1γ", "from_the_text": "GST-GM fusion proteins were electrophoresed on 10% SDS/polyacrylamide gels and stained with Coomassie blue (lanes 1-3) or, after transfer to nitrocellulose, probed with digoxygenin-labelled PP1γ (lanes 4-6) as in [9]. Lanes 1 and 4, GST-GM-(E2-D118); Lanes 2 and 5, GST-GM-(H100-P350); Lanes 3 and 6, GST. The positions of the marker proteins glycogen phosphorylase (97 kDa), bovine serum albumin (66 kDa), ovalbumin (43 kDa), carbonic anhydrase (29 kDa) and soybean trypsin inhibitor (20 kDa) are indicated.\nas §1, with “Thrombin and benzamidine-Agarose were purchased from Sigma (Poole, UK).” left out"}, "PP1c [2]": {"molecular_target": "T1, PP1c", "assay": "MLC20 (myosin P-light chain) phosphatase activity of PP1c", "type": "biochemical", "experimental": "as §4, §5\n(A) The MLC20 phosphatase activity of PP1c was assayed after incubation for 15 minutes at 30° C. in the presence or absence of 1 μM GM-(G63-T93) and either 0.1 μM M110-(M1-F38) or 0.1 nM M110-(M1-E309).\n(1-38, open circles) or M110[M1-K35] (1-35, closed circles) were incubated with PP1c for 15 min at 30° C. and reactions started with the ^32P-labelled MLC20 substrate. The results are expressed as a % of the activity determined in control incubations where the M110 peptides were omitted (100%). Similar results were obtained in three separate experiments.\nas §1, §2, §3\n^32P-labelled myosin P-light chains containing 1.0 mol phosphate per mol subunit was prepared by phosphorylation with smooth muscle myosin light chain kinase. The dephosphorylation of myosin P-light chain (1 μM) was carried out as in [4] and one unit of activity (U) was that amount which catalysed the release of 1 μmole of phosphate in one min. When assaying PP1M in immunoprecipitates from the myofibrillar extracts, the tubes were shaken continuously and 3 nM okadaic acid was included to inhibit any PP2A present."}, "PP1c [3]": {"molecular_target": "T1, PP1c", "assay": "Glycogen synthase phosphatase activity of PP1c", "type": "biochemical, rabbit", "experimental": "The glycogen synthase phosphatase activity of PP1c was measured after a 15 minute incubation at 30° C. with the indicated concentrations of M110-(M1-F38) and M110-(M1-E309). Similar results were obtained in three different experiments.\nas §2"}, "PP1c [4]": {"molecular_target": "T1, PP1c", "assay": "Dephosphorylation of heavy meromyosin by PP1c", "type": "biochemical, rabbit", "settings": "data not shown", "experimental": "as §2"}},
  "note": "Where two headings read alike, the source gives them in different places. No end group written: not given here.",
  "data": [
    {"compound": "C=C1[C@@H](O)[C@@H]2O[C@]3(CC[C@H](/C=C/[C@@H](C)[C@@H]4CC(C)=C[C@@]5(O[C@H](C[C@@](C)(O)C(=O)O)CC[C@H]5O)O4)O3)CC[C@H]2O[C@@H]1[C@@H](O)C[C@H](C)[C@H]1O[C@@]2(CCCCO2)CC[C@H]1C", "note": "[okadaic acid]", "values": [
      {"measurement": "relative potency as inhibitor of PP1 and PP2A", "setting": "PP1 and PP2A", "result": "a much more potent inhibitor of PP2A than PP1"}
    ]},
    {"compound": "CO[C@H]([C@H](O)CC(=O)[C@@H](C)[C@@H](O)CC[C@@H](C)[C@@H]1O[C@]2(CC[C@@H](C)[C@H](CC[C@H](C)C(C)=O)O2)CC[C@@H]1C)[C@H](OC(=O)C[C@@H](O)C1=C(C)C(=O)OC1=O)C(C)C", "note": "[tautomycin]", "values": [
      {"measurement": "relative potency as inhibitor of PP1 and PP2A", "setting": "PP1 and PP2A", "result": "a much more potent inhibitor of PP1 than PP2A"}
    ]},
    {"compound": "GM-(E81-T93): peptide generated by cleaving GM-(G63-T93) with Lys-C endoproteinase (DCWELPSASTTFD; UniProt Q16821 81-93, looked up, fragment)", "values": [
      {"measurement": "effect on the phosphorylase phosphatase activity of PP1GL", "setting": "PP1GL; at concentrations up to 10 μM", "result": "no effect"},
      {"measurement": "effect on the phosphorylase phosphatase activity of PP1c", "setting": "PP1c [1]; at concentrations up to 10 μM", "result": "no effect"}
    ]},
    {"compound": "GM-(G63-N75): synthetic 13 residue peptide, residues 63-75 of GM (GRRVSFADNFGFN)", "values": [
      {"measurement": "effect on the phosphorylase phosphatase activity of PP1GL", "setting": "PP1GL; hepatic glycogen particles containing PP1-GL", "result": "increased the phosphorylase phosphatase activity of PP1GL, but were less effective than GM-(G63-T93)"},
      {"measurement": "effect on the phosphorylase phosphatase activity of PP1c", "setting": "PP1c [1]; at concentrations up to 10 μM", "result": "did not increase the phosphorylase phosphatase activity of PP1c significantly"}
    ]},
    {"compound": "GST: glutathione-S-transferase [reference compound]", "values": [
      {"measurement": "interaction with PP1 in Far Western experiments", "setting": "PP1c (γ1-isoform)", "result": "did not interact with PP1c"},
      {"measurement": "effect on the phosphorylase phosphatase activity of PP1c", "setting": "PP1c [1]", "result": "no effect"},
      {"measurement": "effect on the MLC20 phosphatase activity of PP1c", "setting": "PP1c [2]", "result": "no effect"}
    ]},
    {"compound": "MKMADAKQKRNEQLKRWIGSETDLEPPVVKRQKTKVKF [M110-(M1-F38)]", "values": [
      {"measurement": "displacement of GL from PP1c", "setting": "PP1GL", "result": "capable of displacing GL from PP1GL"},
      {"measurement": "increase in the phosphorylase phosphatase activity of PP1GL", "setting": "PP1GL; 10 μM peptide", "result": 3.5, "unit": "fold"},
      {"measurement": "effect on the phosphorylase phosphatase activity of PP1c", "setting": "PP1c [1]", "result": "did not inhibit the phosphorylase phosphatase activity of PP1c"},
      {"measurement": "effect on the phosphorylase phosphatase activity of PP1c", "setting": "PP1c [1]; each peptide individually, at concentrations up to 1 μM", "result": "no effect"},
      {"measurement": "EC50", "setting": "PP1c [2]", "result": 10, "unit": "nM"},
      {"measurement": "concentration needed to modulate the specificity of PP1c compared to thrombin-cleaved M110-(M1-E309)", "setting": "PP1c [2]", "result": "at least 100 fold higher"},
      {"measurement": "effect on the MLC20 phosphatase activity of PP1c", "setting": "PP1c [2]", "result": "stimulate the MLC20 phosphatase activity of PP1c to the same extent as M110-(M1-E309)"},
      {"measurement": "increase in PP1c activity towards MLC20 (maximal activation)", "setting": "PP1c [2]", "result": 3, "unit": "fold"},
      {"measurement": "peptide concentration at maximal activation of the myosin light chain phosphatase activity of PP1c", "setting": "PP1c [2]", "result": 1, "unit": "µM"},
      {"measurement": "effect on the dephosphorylation of glycogen synthase by PP1c", "setting": "PP1c [3]", "result": "greatly enhanced"},
      {"measurement": "effect on the dephosphorylation of heavy meromyosin by PP1c", "setting": "PP1c [4]", "result": "stimulated the dephosphorylation of heavy meromyosin in a similar manner to the dephosphorylation of MLC20"}
    ]}
  ]
}
